According to patent US7521479B2 (priority 2001, dated 2009):
Structures can show the parent of a compound that is named as a salt.

How the values were obtained:
PrP^Sc = PrP^Sc (Mus musculus, UniProt P04925); conditions: neuroblastoma cell line permanently infected with prions; cited from earlier work
prions = conditions: rodents, administered prophylactically; cited from earlier work
scrapie strain ME7 = assay type: in vivo, C57BL mice
[1] = in vivo; cited from earlier work
Aβ1-40 = Aβ1-40 (Homo sapiens, UniProt P05067); conditions: cited from earlier work
Sequence of Aβ1-40 (P05067 672-711 limits assumed): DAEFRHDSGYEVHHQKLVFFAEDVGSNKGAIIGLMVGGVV

[2] = group d, spleens, at time of death

Sequence of PrP^Sc (P04925 23-230 limits assumed): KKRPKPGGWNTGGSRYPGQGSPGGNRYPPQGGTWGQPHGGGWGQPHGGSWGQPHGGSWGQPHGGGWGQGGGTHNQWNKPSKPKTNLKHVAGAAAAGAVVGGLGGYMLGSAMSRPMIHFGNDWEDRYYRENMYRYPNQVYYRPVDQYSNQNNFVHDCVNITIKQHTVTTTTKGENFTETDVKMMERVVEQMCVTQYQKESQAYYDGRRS

In the case of `Nc1c(/N=N/c2ccc(-c3ccc(/N=N/c4cc(S(=O)(=O)O)c5ccccc5c4N)cc3)cc2)cc(S(=O)(=O)O)c2ccccc12` [Congo red], the “accumulation of PrP^Sc” value (PrP^Sc) is listed as “reduce the accumulation of PrP^Sc” and the disease onset (prions) is listed as “delay disease onset”.
In the case of `N=C(N)N` [guanidine hydrochloride], the “PrP^Sc titers at the final endpoint versus group b” value (scrapie strain ME7; [2]) was “lower PrP^Sc titers”, the “infectivity at the final endpoint versus group b” value (scrapie strain ME7; [2]) was “lower infectivity” and the “survival (time of death) of treated infected mice” value (scrapie strain ME7; group d: ME7 i.p., oral treatment from 70 days post-infection, 15 then 40 mg/kg/day) was “live as long as the mice in group a”. For the same compound, the “PrP^Sc level with treatment from one day post inoculation” value (scrapie strain ME7; group f, prophylactic-like treatment) was “negligible or not much higher than that provided in the initial inoculum”, the “overall efficacy in scrapie” value (scrapie strain ME7; overall results) was “effective in the treatment of scrapie” and the side effects [1] was “bone marrow depression to renal problems to cardiac arrhythmia”.
For `Oc1ccc(O)cc1` [Hydroquinone], the “inhibition of Aβ1-40 aggregation and neurotoxicity” value (Aβ1-40) is listed as “inhibit Aβ1-40 aggregation and neurotoxicity at comparable molar concentrations to rifampicin”.
In the case of `Oc1ccc(O)c2ccccc12` [1,4-dihydroxynaphthalene], the “inhibition of Aβ1-40 aggregation and neurotoxicity” value (Aβ1-40) is listed as “inhibit Aβ1-40 aggregation and neurotoxicity at comparable molar concentrations to rifampicin”.
